Earlier results as cited in patent US10912741B2, “Prevention of liver cancer with safranal-based formulations” (United Arab Emirates University, priority 2019, dated 2021).

Test system: HeLa cells
Conditions: reported in the background; cited from earlier work

## CC1=C(C=O)C(C)(C)C[C@H](O[C@@H]2O[C@H](CO)[C@@H](O)[C@H](O)[C@H]2O)C1 [picrocrocin]
  growth of HeLa cells: inhibit the growth of HeLa cells

## CC(/C=C/C=C(\C)C(=O)O[C@@H]1O[C@H](CO[C@@H]2O[C@H](CO)[C@@H](O)[C@H](O)[C@H]2O)[C@@H](O)[C@H](O)[C@H]1O)=C\C=C\C=C(C)\C=C\C=C(/C)C(=O)O[C@@H]1O[C@H](CO[C@@H]2O[C@H](CO)[C@@H](O)[C@H](O)[C@H]2O)[C@@H](O)[C@H](O)[C@H]1O [crocin]
  growth of HeLa cells: inhibit the growth of HeLa cells
